The source of these data is patent US7820663B2, “Substituted enaminones, their derivatives and uses thereof” (The Regents of the University of California, priority 2005, dated 2010).

Molecules are shown by their SMILES.

`CCOc1ccc(N/C=C(\C(=O)Nc2ccccc2)c2cc(C)no2)cc1` [Example 3, α-[[(4-Ethoxyphenyl)amino]methylene]-3-methyl-N-phenyl-5-isoxazoleacetamide] displayed a melting point of 114 to 115 °C. Compound `Cc1cc(/C(=C/Nc2ccc(Cl)cc2)C(=O)Nc2ccc(Cl)cc2)no1` [Example 8, N-(4-Chlorophenyl)-α-[[4-(chlorophenyl)amino]methylene]-5-methyl-3-isoxazoleacetamide] came in with a melting point of 179 to 180 °C.

Broadly, the melting point is the temperature, or range, at which the solid turns liquid.
